The values below come from US20240124466A1, “COMPOUNDS AND USE THEREOF FOR TREATMENT OF NEURODEGENERATIVE, DEGENERATIVE AND METABOLIC DISORDERS” (VOVA IDA THERAPEUTICS, INC., priority 2020, published 2024).

The test system of series [1] is PK1 neuroblastoma cells exposed to TPrP. Nature of the series: cells. The conditions noted are these: Neuroblastoma cell, 96 h, read-out: TPrP EC50.
The test system is the same in series [2]. The conditions noted are these: for EC50: read-out: TPrP EC50; for toxic at cc (concentration above which compound is toxic): mouse.

Several values for one entry are separate records, joined by “and”; a condition that tells them apart may be missing. Equal values may be shown once. Read-outs that look alike come from different tables or passages of the source.

For `Cc1ccc(-c2nnc3c4ccccc4c(C)nn23)cc1S(=O)(=O)N1CCOCC1` [SR-843], the concentration giving a half-maximal response (EC50) (usually the concentration that produces a half-maximal response) is 15 nM in series [1]; 20 nM and 25 nM and 30 nM in series [2].
For the molecule `Cc1ccc(-c2nnc(-c3ccccc3)[nH]2)cc1S(=O)(=O)N1CCOCC1` [SR-25604, 4-((2-Methyl-5-(5-phenyl-4H-1,2,4-triazol-3-yl)phenyl)sulfonyl)morpholine], the 50% effective concentration (EC50) in series [1] was 35 nM; in series [2], 30 nM and 40 nM.
Turning to `Cc1ccc(-c2nnc(-c3ccc(N(C)C)cc3)[nH]2)cc1S(=O)(=O)N1CCOCC1` [SR-28124, N,N-dimethyl-4-(5-(4-methyl-3-(morpholinosulfonyl)phenyl)-4H-1,2,4-triazol-3-yl)aniline], the EC50 in series [1] was 12 nM. The “toxic at cc (concentration above which compound is toxic)” value in series [2] is recorded as 12 nM (but toxic at cc >135 nM).
For the molecule `Cc1ccc(-c2nnc(-c3ccc([N+](=O)[O-])cc3)[nH]2)cc1S(=O)(=O)N1CCOCC1` [SR-29045, 4-((2-Methyl-5-(5-(4-nitrophenyl)-4H-1,2,4-triazol-3-yl)phenyl)sulfonyl) morpholine], the EC50 in series [1] stood at 5 nM. In series [2], the “toxic at cc (concentration above which compound is toxic)” value was 5 nM (but toxic at cc >5 nM).
As for `Cc1ccc(-c2ccnc(-c3ccncc3)c2)cc1S(=O)(=O)N1CCOCC1` [SR-29204, 4-((5-([2,4′-Bipyridin]-4-yl)-2-methylphenyl)sulfonyl)morpholine], the EC50 in series [1] is < 5 nM. Also, the “protection at 5 nM” value in series [2] was <5 nM (100% protection at 5 nM).
On to `Cc1ccc(-c2ccnc(Cl)c2)cc1S(=O)(=O)N1CCN(CCF)CC1` [SR-35017, 1-((5-(2-Chloropyridin-4-yl)-2-methylphenyl)sulfonyl)-4-(2-fluoroethyl) piperazine], for which, in series [1], the concentration giving a half-maximal response (EC50) was determined as 900 nM.
Still for that read-out and setting: the value for `Cc1ccc(-c2ccnc(Cl)c2)cc1S(=O)(=O)N1CCN(CC(F)F)CC1` [SR-35124, 1-((5-(2-Chloropyridin-4-yl)-2-methylphenyl)sulfonyl)-4-(2,2-difluoroethyl) piperazine] was > 1500 nM.
Still for that read-out and setting: in the case of `Cc1ccc(-c2ccnc(Cl)c2)cc1S(=O)(=O)N1CCN(CCCO)CC1` [SR-35129, 3-(4-((5-(2-Chloropyridin-4-yl)-2-methylphenyl)sulfonyl)piperazin-1-yl)propan-1-ol] it was > 1500 nM; in that of `C#CCCC(=O)CCn1cc(-c2ccc(C)c(S(=O)(=O)N3CCN(CCc4ccncc4)CC3)c2)cn1` [SR-35186, 1-(4-(4-Methyl-3-((4-(2-(pyridin-4-yl)ethyl)piperazin-1-yl)sulfonyl)phenyl)-1H-pyrazol-1-yl)hept-6-yn-3-one], < 5 nM; in that of `Cc1ccc(-c2ccnc(Cl)c2)cc1S(=O)(=O)N1CCN(CC(F)(F)F)CC1` [SR-35324, 1-((5-(2-Chloropyridin-4-yl)-2-methylphenyl)sulfonyl)-4-(2,2,2-trifluoroethyl) piperazine], > 1500 nM.
Regarding `Cc1ccc(-c2ccnc(Cl)c2)cc1S(=O)(=O)N1CCNCC1` [SR-35422, 1-((5-(2-Chloropyridin-4-yl)-2-methylphenyl)sulfonyl)piperazine], in series [1], the EC50 is < 5 nM.
Turning to `Cc1ccc(-c2ccnc(Cl)c2)cc1S(=O)(=O)N1CCN(CC(C)O)CC1` (stereo not drawn) [SR-35464, 1-(4-((5-(2-Chloropyridin-4-yl)-2-methylphenyl)sulfonyl)piperazin-1-yl)propan-2-ol], the concentration for a half-maximal effect (EC50) in series [1] turned out to be 800 nM.
The same measure, in the same setting: in the case of `Cc1ccc(-c2ccnc(Cl)c2)cc1S(=O)(=O)N1CCN(C(=O)c2ccco2)CC1` [SR-35516, (4-((5-(2-Chloropyridin-4-yl)-2-methylphenyl)sulfonyl)piperazin-1-yl)(furan-2-yl)methanone] it was 270 nM.
